What was measured:
AMPK (AMPKα1β1γ1) [1] = target: T1, AMPK (AMPKα1β1γ1) (Rattus norvegicus, UniProt P80385); assay: STD-NMR and NMR competition titration against MP; assay type: binding
T1 construct: gene Prkag1; recombinant full-length AMPKα1β1γ1 heterotrimer, 6×His tag at the N-terminal end of the α-subunit; with AMPK α1 (Prkaa1) and β1 (Prkab1) subunits

AMPK (AMPKα1β1γ1) [2] = target: T1, AMPK (AMPKα1β1γ1); assay: MST (Kd […]); ITC (Kd […]); STD-NMR; CD; assay type: binding

T1 sequence (P80385 whole entry): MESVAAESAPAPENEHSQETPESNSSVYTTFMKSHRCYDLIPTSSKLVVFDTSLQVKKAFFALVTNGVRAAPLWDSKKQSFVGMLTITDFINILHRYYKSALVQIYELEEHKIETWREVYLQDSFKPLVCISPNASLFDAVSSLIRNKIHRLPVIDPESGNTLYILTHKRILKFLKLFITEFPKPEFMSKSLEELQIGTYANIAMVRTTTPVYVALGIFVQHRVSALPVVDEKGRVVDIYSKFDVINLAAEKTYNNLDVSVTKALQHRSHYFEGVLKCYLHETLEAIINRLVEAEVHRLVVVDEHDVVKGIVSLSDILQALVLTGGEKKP
T1 sequence (P54645 whole entry partner): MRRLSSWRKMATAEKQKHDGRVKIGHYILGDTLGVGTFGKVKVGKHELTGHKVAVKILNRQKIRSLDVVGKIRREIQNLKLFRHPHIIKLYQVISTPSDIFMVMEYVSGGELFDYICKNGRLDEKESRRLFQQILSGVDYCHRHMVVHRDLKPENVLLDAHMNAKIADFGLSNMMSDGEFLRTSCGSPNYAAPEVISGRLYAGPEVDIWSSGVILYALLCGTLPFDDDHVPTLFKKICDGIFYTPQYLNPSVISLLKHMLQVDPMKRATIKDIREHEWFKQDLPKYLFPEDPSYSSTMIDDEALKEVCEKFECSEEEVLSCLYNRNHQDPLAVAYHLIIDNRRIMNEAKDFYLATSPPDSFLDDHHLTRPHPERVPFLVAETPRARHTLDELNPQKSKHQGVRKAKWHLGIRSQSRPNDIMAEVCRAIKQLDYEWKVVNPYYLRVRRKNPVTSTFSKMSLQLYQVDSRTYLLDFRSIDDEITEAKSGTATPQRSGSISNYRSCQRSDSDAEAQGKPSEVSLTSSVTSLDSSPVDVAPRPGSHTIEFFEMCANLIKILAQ
T1 sequence (P80386 2-270 partner): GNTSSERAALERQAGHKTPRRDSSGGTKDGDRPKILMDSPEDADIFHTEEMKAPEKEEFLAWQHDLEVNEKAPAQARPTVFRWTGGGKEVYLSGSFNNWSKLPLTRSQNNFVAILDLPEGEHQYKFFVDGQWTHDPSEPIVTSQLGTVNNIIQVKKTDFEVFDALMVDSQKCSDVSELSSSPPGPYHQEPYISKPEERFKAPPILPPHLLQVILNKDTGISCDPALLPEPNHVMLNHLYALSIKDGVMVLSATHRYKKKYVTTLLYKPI

Kd (AMPK (AMPKα1β1γ1) [2]) [µM] | SMILES | STD-NMR and NMR competition titration against MP (AMPK (AMPKα1β1γ1) [1])
– | Nc1ncnc2c1ncn2[C@@H]1O[C@H](COP(=O)(O)O)[C@@H](O)[C@H]1O [AMP, adenosine monophosphate] | adenosine monophosphate (AMP) and MP bind directly to AMPK
4.27 | O=P(O)(O)OC[C@H]1O[C@@H](n2cnc3c(Nc4cccc(O)c4)ncnc32)[C@H](O)[C@@H]1O [MP, ((2R,3S,4R,5R)-3,4-dihydroxy-5-(6-((3-hydroxyphenyl)amino)-9H-purin-9-yl)tetrahydrofuran-2-yl) methyl dihydrogen phosphate] | –
